In experiment [1] the test system is E. coli ATCC 25922. The experiment is described as follows: Minimum inhibitory concentration, ampicillin sensitive strains. The class given is cell-based, Escherichia coli. The conditions noted are these: for Minimum inhibitory concentrations: E. coli ATCC 25922, Gram-negative, ampicillin sensitive. As to the method:
(§1) Each one of the 24 combinations of the ionic liquids were tested with following 9 bacteria: • Escherichia coli ATCC25922 • Staphylococcus aureus ATCC25923 • Klebsiella pneumonia • Staphylococcus epidermidis • Enterococcus fecalis • E. coli Tem CTXM9 • E. coli CTXM2 • E. coli AmpCMox2 • Saccharomyces cerevisiae PYCC 4072
(§2) These bacteria were tested in Vitek2 systems from bioMérieux. Bacteria were grown on Trypticase soy agar for 24 hours at 37° C. prior to each test. The bacteria assays were made in Tryptic Soy Broth.

Experiment [2] concerns K. pneumoniae. The experiment is described as above. The format is cell-based, Klebsiella pneumonia. As to conditions: for Minimum inhibitory concentrations: K. pneumoniae, Gram-negative, ampicillin sensitive. As to the method:
as §1, §2

In experiment [3] the test system is S. aureus ATCC 25923. The description is as above. The format is cell-based, Staphylococcus aureus. The conditions noted are these: for Minimum inhibitory concentrations: S. aureus ATCC 25923, Gram-positive, ampicillin sensitive. As to the method: as §1, §2
Experiment [4] relates to E. fecalis. The experiment is described as above. As to conditions: for Minimum inhibitory concentrations: E. fecalis, Gram-positive, ampicillin sensitive. The format is cell-based, Enterococcus fecalis. As to the method:
as §1, §2

In experiment [5] the test system is S. epidermis. The description is as above. The class given is cell-based, Staphylococcus epidermidis. As to conditions: for Minimum inhibitory concentrations: S. epidermis, Gram-positive, ampicillin sensitive. As to the method:
as §1, §2

Experiment [6] relates to E. coli CTX M2. As to the kind of experiment: Minimum inhibitory concentration, ampicillin resistant strains. The class given is cell-based. The conditions noted are these: for Minimum inhibitory concentrations: E. coli CTX M2, ampicillin resistant. As to the method: as §1, §2
In experiment [7] the test system is E. coli TEM CTX M9. The experiment is described as above. The conditions noted are these: for Minimum inhibitory concentrations: E. coli TEM CTX M9, ampicillin resistant. The class given is cell-based. As to the method: as §1, §2
Experiment [8] deals with E. coli AmpC MOX2. As to the kind of experiment: microbe, parasite or virus in culture. The conditions noted are these: for Minimum inhibitory concentrations: E. coli AmpC MOX2, ampicillin resistant. The class given is cell-based. As to the method: as §1, §2
Experiment [9] deals with gingival fibroblasts (GF). As to the kind of experiment: MTT cellular viability/proliferation, primary human cells. The class given is cell-based. The conditions noted are these: MTT assay. As to the method: (§3) At about 70-80% confluence, cells were enzymatically detached with 0.05% trypsin and 0.5 mM EDTA and seeded at 10^4 cells cm^−2.
(§4) After an attachment period of 24 hours, the culture medium was renewed, and supplemented with different concentrations (0.005-500 mM) of the ampicillin derived ionic liquid. Cell cultures were maintained in a 5% CO2 humidified atmosphere at 37° C.
(§5) Cellular viability/proliferation was assessed by the MTT assay at days 1, 3 and 5 of the culture. This assay is based on the reduction of 3-(4,5-dimethylthiazol-2-yl)-2,5-diphenyltetrazolium bromide (MTT) to a purple formazan product by viable cells.
(§6) Shortly, cultured cells were incubated at 37° C. with 0.5 mg ml −1 of MTT for 4 hours. The culture medium was then removed; the stained product dissolved with dimethylsulfoxide, and absorbance determined at 550 nm in an ELISA plate rewader. Results were expressed as absorbance per cm2.
(§7) The values of the […] (IC50) and the median lethal dose (LD50) were obtained from nonlinear regression analysis of concentration effect curves using the GGraphPad Prism Software.
(§8) It is used to measure the efficacy of a compound in inhibiting any biochemical or biological function.
In general terms: Formazan colour is commonly taken as a measure of viable cells.

Experiment [10] relates to PC3 (prostate cancer cell line). As to the kind of experiment: MTT cellular viability/proliferation, cancer cell lines. The class given is cell-based, human. The conditions noted are these: PC3, MTT assay. As to the method: as §3, §4, §5, §6, §7, §8
The subject of experiment [11] is RKO (colon cancer cell line). The description is as above. The format is cell-based, human. The conditions noted are these: MTT assay. As to the method:
as §3, §4, §5, §6, §7, §8

Experiment [12] concerns SF (skin fibroblasts). The experiment is described as follows: MTT cellular viability/proliferation, primary human cells. The class given is cell-based. The conditions noted are these: MTT assay. As to the method: as §3, §4, §5, §6, §7, §8
The test system of experiment [13] is HepG2 (hepatocellular liver carcinoma cell). The experiment is described as follows: MTT cellular viability/proliferation, cancer cell lines. The format is cell-based, human. The conditions noted are these: HepG2, MTT assay. As to the method:
as §3, §4, §5, §6, §7, §8

For experiment [14], the system named is MG63 (osteosarcoma cell line). Described as above. The format is cell-based, human. The conditions noted are these: MG63, MTT assay. As to the method: as §3, §4, §5, §6, §7, §8
The test system of experiment [15] is T47D (ductal breast epithelial tumour cell line). As to the kind of experiment: cells. The class given is cell-based. As to the method: as §3, §4, §5, §6, §7, §8

Like-named read-outs stand apart in the source and are kept apart here.

`CCn1cc[n+](C)c1.[Br-]` [[EMIM][Br]]: the Minimum inhibitory concentrations is more than 5 mM in experiment [1]; more than 5 mM in experiment [2]; 0.05 mM in experiment [3]; more than 5 mM in experiment [4]; 5 mM in experiment [5]; more than 5 mM in experiment [6]. Further, the values for the Minimum inhibitory concentrations in experiment [7] and in experiment [8] were 5 mM and more than 5 mM, respectively.
In the case of `CCCCCCCCCCCCCCCC[n+]1ccccc1.[Cl-]` [[C16Pyr][Cl]], the Minimum inhibitory concentrations in experiment [1] is 0.5 mM; in [2], 2.5 mM; in experiment [3], 0.5 mM; in experiment [4] it was 0.5 mM; in experiment [5], 2.5 mM; in experiment [6], more than 5 mM. Moreover, the figures for the Minimum inhibitory concentrations in experiment [7] and in experiment [8] were 0.5 mM and more than 5 mM, respectively.
In general, IC50 refers to the midpoint of a concentration-inhibition curve. Higher therefore signals lower potency. For the compound `CC1(C)S[C@@H]2[C@H](NC(=O)[C@H](N)c3ccccc3)C(=O)N2[C@H]1C(=O)[O-].[Na+]` [[Na][Amp]] [sodium ampicillin], the Minimum inhibitory concentrations in experiment [1] was 0.05 mM; in [2] it was 2.5 mM; in experiment [3] it was 0.005 mM; in experiment [4], 0.05 mM; in experiment [5], 0.05 mM; in experiment [6], more than 5 mM. The Minimum inhibitory concentrations in experiment [7] and in experiment [8] was more than 5 mM throughout. The half-inhibitory concentration (IC50) is 109000 nM in experiment [9], 597 nM in experiment [10] and 2410 nM in experiment [11].
`C[N+](C)(C)CCO.[Cl-]` [[Cholin][Cl]]: the Minimum inhibitory concentrations in experiment [1] is more than 5 mM; in experiment [2], more than 5 mM; in [3] it was 2.5 mM; in experiment [4], more than 5 mM; in experiment [5], more than 5 mM; in [6], more than 5 mM. Besides, the Minimum inhibitory concentrations in experiment [7] and in experiment [8] was more than 5 mM each time.
In the case of `CC1(C)S[C@@H]2[C@H](NC(=O)[C@H](N)c3ccccc3)C(=O)N2[C@H]1C(=O)[O-].C[N+](C)(C)CCO` [[Cholin][Amp]], the Minimum inhibitory concentrations in [1], in [2], in [3], in experiment [4], in [5] and in experiment [6] was more than 5 mM each time. In addition, the Minimum inhibitory concentrations in experiment [7] and in experiment [8] was more than 5 mM throughout. Besides, the 50% inhibitory concentration (IC50) in [12] was determined as 48500 nM; in [13], 1620 nM; in experiment [14], 17 nM; in experiment [10], 982 nM.
In the case of `CC1(C)S[C@@H]2[C@H](NC(=O)[C@H](N)c3ccccc3)C(=O)N2[C@H]1C(=O)[O-].CC[n+]1ccn(C)c1` [[EMIM][Amp]], the Minimum inhibitory concentrations in experiment [1], in experiment [2], in experiment [3], in experiment [4], in experiment [5] and in experiment [6] was more than 5 mM throughout. Also, the Minimum inhibitory concentrations in experiment [7] and in [8] was more than 5 mM each time. In addition, the values for the IC50 in experiment [9], in [10] and in experiment [11] were 853 nM, 30000 nM and 269 nM, respectively.
`CCCCCCCCCCCCCC[P+](CCCCCC)(CCCCCC)CCCCCC.[Cl-]` [[P6,6,6,14][Cl]]: the Minimum inhibitory concentrations in [1] is 2.5 mM; in experiment [2], 2.5 mM; in experiment [3] it was 2.5 mM; in experiment [4], more than 5 mM; in experiment [5] it was 2.5 mM; in experiment [6] it was 5 mM. Moreover, the Minimum inhibitory concentrations in experiment [7] is 2.5 mM; in [8] it was more than 5 mM.
Turning to `C[n+]1ccn(CCO)c1.[Cl-]` [[C2OHMIM][Cl]], the Minimum inhibitory concentrations in experiment [1] was 5 mM; in experiment [2], more than 5 mM; in experiment [3] it was more than 5 mM; in experiment [4], 5 mM; in experiment [5] it was 5 mM; in experiment [6], 2.5 mM. Besides, the Minimum inhibitory concentrations in experiment [7] is on record as more than 5 mM; in experiment [8], 5 mM.
As to `CC1(C)S[C@@H]2[C@H](NC(=O)[C@H](N)c3ccccc3)C(=O)N2[C@H]1C(=O)[O-].C[n+]1ccn(CCO)c1` [[C2OHMIM][Amp]], the Minimum inhibitory concentrations was 5 mM in experiment [1]; more than 5 mM in experiment [2]; more than 5 mM in [3]; 5 mM in experiment [4]; 2.5 mM in experiment [5]; more than 5 mM in experiment [6]. Also, the Minimum inhibitory concentrations is more than 5 mM in experiment [7] and 5 mM in experiment [8]. For the same compound, the concentration for half-maximal inhibition (IC50) in experiment [12] was 5080 nM; in experiment [9], 462 nM; in experiment [13], 319 nM; in experiment [14], 738 nM; in experiment [11], 359 nM; in experiment [15] (T47D, MTT assay), 146 nM.
Turning to `CC1(C)S[C@@H]2[C@H](NC(=O)[C@H](N)c3ccccc3)C(=O)N2[C@H]1C(=O)[O-].CCCCCCCCCCCCCCCC[n+]1ccccc1` [[C16Pyr][Amp]], the Minimum inhibitory concentrations in experiment [1] was found to be 0.5 mM; in experiment [2] it was 0.05 mM; in experiment [3], 0.005 mM; in experiment [4] it was 0.005 mM; in experiment [5], 0.005 mM; in experiment [6], 0.05 mM. Moreover, the Minimum inhibitory concentrations is on record as 0.005 mM in experiment [7] and more than 5 mM in experiment [8]. Moreover, the half-inhibitory concentration (IC50) in experiment [12] stood at 32 nM; in experiment [9], 12 nM; in experiment [14] it was 11 nM; in experiment [11] it was 226 nM; in experiment [15] (T47D, MTT assay), 5 nM.
As for `CC1(C)S[C@@H]2[C@H](NC(=O)[C@H](N)c3ccccc3)C(=O)N2[C@H]1C(=O)[O-].CC[N+](CC)(CC)CC` [[TEA][Amp], tetraethyl ammonium salt of Ampicillin], the Minimum inhibitory concentrations in [1], in experiment [2], in experiment [3], in experiment [4], in [5] and in experiment [6] was more than 5 mM each time. Moreover, the Minimum inhibitory concentrations in experiment [7] and in experiment [8] was more than 5 mM throughout. Also, the IC50 in [14] came out at 30 nM; in experiment [10], 35600 nM; in [11] it was 56700 nM; in experiment [15], 42 nM.
As for `CC[N+](CC)(CC)CC` [[TEA][Br], Tetraethylammonium bromide], the MIC is more than 5 mM in experiment [1] (Escherichia coli, ATCC25922, read-out: Minimum inhibitory concentrations); more than 5 mM in experiment [2] (Klebsiella pneumoniae, read-out: Minimum inhibitory concentrations); 2.5 mM in experiment [3] (Staphylococcus aureus, ATCC25923, read-out: Minimum inhibitory concentrations); more than 5 mM in [4] (Enterococcus, read-out: Minimum inhibitory concentrations); more than 5 mM in experiment [5] (Staphylococcus epidermidis, read-out: Minimum inhibitory concentrations); 2.5 mM in experiment [6] (Escherichia coli, CTXM2, read-out: Minimum inhibitory concentrations). Further, the MIC in experiment [7] (Escherichia coli, read-out: Minimum inhibitory concentrations) is more than 5 mM; in experiment [8] (Escherichia coli, AMPCMOX2, read-out: Minimum inhibitory concentrations, E. coli AmpC MOX2, ampicillin resistant), more than 5 mM.

For the origin of these results see patent US20150174145A1, “Pharmaceutical compounds with the structure of ionic salts with antibiotic and anticancer action” (priority 2013, published 2015).
